Values joined by “and” are separate entries in the source; they are usually repeats but may differ in a detail not shown here. Identical values can stand only once.
Key:
[1] = tested on: mixed CD4+ T cells and CD8+ T cells; assay: Expansion of mixed CD4+ and CD8+ T cells at set ratios (5:1, 10:1) with 2-DG; format: cell-based, human; conditions: for Cultured T Cell Population Doublings at 5:1 CD4+:CD8+ Cells / Cultured T Cell Population Doublings at 10:1 CD4+:CD8+ Cells: 0.25 mM 2-DG
Procedure: T cell activation and expansion: T cells (seeding density 1×10^6 vc/mL) were activated with DYNABEADS® Human T-Expander CD3/CD28 (Thermo Fisher Scientific, Cat. No. 11141D) at a ratio of 3 beads per T cell and cultured in serum-free medium, animal origin free medium. T cells were counted on days 5, 7, 10, and 12 on a Vi-CELL XR analyzer (Beckman Coulter, Indianapolis IN) and fed with or without 2-DG (0.25 mM, 0.5 mM, 1 mM, 2 mM, and 4 mM) and 5% human AB serum to a density of 5×10^5 vc/mL on days 3, 5, and 7 and 1×10^6 vc/mL on day 10. For some studies, CD8+ and CD4+ T cells were isolated from PBMCs by negative selection using Untouched Human CD8+ and CD4+ T Cells Kits. Naïve and non-naïve T cells were isolated from enriched T cells by positive selection using CD45RA nanobeads (Miltenyi). CD4+ and CD8+ T cells were mixed at two different CD4+:CD8+ ratios (5:1 and 10:1) to determine the effect of 2-DG on CD8+ T cells. All conditions with and without 2-DG expanded to about 6 to 7 population doublings. Results illustrate that the effect of 2-DG treatment in cell growth was similar in both mixtures. (FIGS. 19 and 20). In FIGS. 38 and 39, CD4+ and CD8+ T cells were mixed at two different CD4:CD8 ratios (5:1 and 10:1) to determine the effect of 2-DG on CD8+ T cells. All conditions with and without 2-DG expanded to about 6 to 7 population doublings. Results illustrate that the effect of 2-DG treatment in cell growth was similar in both mixtures.

[2] = tested on: Pan CD3+ T cells; assay: CD8+/CD4+ phenotype by flow cytometry after 10 days with 2-DG; format: cell-based, human; conditions: for CD8+ T cell population (frequency): day 10
Procedure: Phenotype: Primary human T cells were expanded for 10 days with and without 2-DG and 5% human AB serum. DYNABEADS® were removed from 2×10^6 cells by magnetic separation. Surface staining was performed with antibodies against CD3 (Invitrogen, Cat. No. CD0329), CD4 (Molecular Probes, Cat. No. A15858), CD8 (Invitrogen, Cat. No. MHCD0828). Flow cytometric analysis was performed on a Gallios flow cytometer and Kaluza software (Beckman Coulter, Indianapolis IN). Phenotype: Primary human T cells were expanded for 10 days with and without 2-DG and 5% human AB serum. DYNABEADS® were removed from 2×10^6 cells by magnetic separation. Surface staining was performed with antibodies against CD3 (Invitrogen, Cat. No. CD0329), CD4 (Molecular Probes, Cat. No. A15858), CD8 (Invitrogen, Cat. No. MHCD0828). Flow cytometric analysis was performed on a Gallios flow cytometer and Kaluza software (Beckman Coulter, Indianapolis IN).

[3] = tested on: Primary human T cells; assay: CD8+/CD4+ phenotype with 2-DG and CD Lipid Concentrate 1 or 2; format: cell-based
Procedure: FIGS. 48 and 49 represent the data from Tables 42 and 43 which depicts the gating strategy for differentiation phenotyping. T cells expanded for 10 days were stained with antibodies against CD3, CD4, and CD8. Flow cytometric analysis was performed in a Beckman-Coulter Gallios analyzer.
Phenotype: Primary human T cells were expanded for 10 days with and without 2-DG and 5% human AB serum. DYNABEADS® were removed from 2×10^6 cells by magnetic separation. Surface staining was performed with antibodies against CD3 (Invitrogen, Cat. No. CD0329), CD4 (Molecular Probes, Cat. No. A15858), CD8 (Invitrogen, Cat. No. MHCD0828). Flow cytometric analysis was performed on a Gallios flow cytometer and Kaluza software (Beckman Coulter, Indianapolis IN).
FIGS. 48 and 49 represent the fold increase in CD8:CD4 ratio compared to day 0.

[4] = 0.25 mM 2-DG, Day 10 of culture
[5] = 0.25 mM 2-DG, Day 10, single donors
[6] = 0.5 mM 2-DG, Day 10, single donors

Question: O=CC[C@@H](O)[C@H](O)[C@H](O)CO [2-DG, 2-Deoxy-D-Glucose] was tested. Which “Cultured T Cell Population Doublings at 5:1 CD4+:CD8+ Cells” value ([1]; day 5) did it give?
Answer: 2.84 and 1.95

Question: What about the “Cultured T Cell Population Doublings at 10:1 CD4+:CD8+ Cells” value ([1]; day 5) of the same molecule?
Answer: 1.97

Question: And the “Cultured T Cell Population Doublings at 5:1 CD4+:CD8+ Cells” value ([1]; day 7)?
Answer: 5.44 and 2.84

Question: What about the “Cultured T Cell Population Doublings at 10:1 CD4+:CD8+ Cells” value ([1]; day 7) of the same molecule?
Answer: 2.98

Question: What about the “Cultured T Cell Population Doublings at 5:1 CD4+:CD8+ Cells” value ([1]; day 10) of the same molecule?
Answer: 6.17 and 5.44

Question: What about the “Cultured T Cell Population Doublings at 10:1 CD4+:CD8+ Cells” value ([1]; day 10) of the same molecule?
Answer: 5.67

Question: And the “Cultured T Cell Population Doublings at 10:1 CD4+:CD8+ Cells” value ([1]; day 12)?
Answer: 6.25

Question: What about the “population doublings” value ([1]; CD4+:CD8+ ratios 5:1 and 10:1) of the same molecule?
Answer: 6 to 7 population doublings

Question: And the “% CD4+” value [2, 4]?
Answer: 39.21% and 32.39% and 22.68%

Question: What about the “% CD8+” value [2, 4] of the same molecule?
Answer: 53.46% and 63.2% and 70.32%

Question: And the “% Ratios (CD8+/CD4+) (Avg)” value ([2]; 0.25 mM 2-DG, Day 10 of culture, average)?
Answer: 2.1

Question: And the “Fold Increase compared to Baseline” value ([2]; 0.25 mM 2-DG, Day 10 vs Day 0 CD8+/CD4+ ratio)?
Answer: 3.02 and 2.49 and 3.99

Question: And the “% Ratios (CD8+/CD4+) (Avg)” value ([2]; 0.25 mM 2-DG, Day 10)?
Answer: 2.1

Question: What about the “% CD4+” value [2, 5] of the same molecule?
Answer: 39.21% and 32.39% and 22.68%

Question: And the “% CD8+” value [2, 5]?
Answer: 53.46% and 63.2% and 70.32%

Question: And the “% Ratios (CD8+/CD4+)” value [2, 5]?
Answer: 1.36 and 1.95 and 3.10

Question: And the “Fold Increase (Avg)” value ([2]; 0.25 mM 2-DG, Day 10 vs Day 0)?
Answer: 3.2

Question: What about the “Fold Increase in CD8+ to CD4+ ratio” value ([2]; 0.25 mM 2-DG, Day 10 vs Day 0, single donors) of the same molecule?
Answer: 3.02 and 2.49 and 3.99

Question: What about the “CD8+ T cell population (frequency)” value ([2]; 0.25 mM and 0.5 mM 2-DG, single donor) of the same molecule?
Answer: 48%

Question: What about the “% CD4+” value ([2]; 0.5 mM 2-DG, Day 10 of culture) of the same molecule?
Answer: 37.08% and 29.85% and 23.85%

Question: And the “% CD8+” value ([2]; 0.5 mM 2-DG, Day 10 of culture)?
Answer: 55.04% and 66.57% and 68.64%

Question: What about the “% Ratios (CD8+/CD4+)” value ([2]; 0.5 mM 2-DG, Day 10 of culture) of the same molecule?
Answer: 1.48 and 2.23 and 2.88

Question: What about the “% Ratios (CD8+/CD4+) (Avg)” value ([2]; 0.5 mM 2-DG, Day 10 of culture, average) of the same molecule?
Answer: 2.2

Question: And the “Fold Increase compared to Baseline” value ([2]; 0.5 mM 2-DG, Day 10 vs Day 0 CD8+/CD4+ ratio)?
Answer: 3.29 and 2.85 and 3.7

Question: And the “% Ratios (CD8+/CD4+) (Avg)” value ([2]; 0.5 mM 2-DG, Day 10)?
Answer: 2.2

Question: And the “% CD4+” value [2, 6]?
Answer: 37.08% and 29.85% and 23.85%

Question: What about the “% CD8+” value [2, 6] of the same molecule?
Answer: 55.04% and 66.57% and 68.64%

Question: And the “% Ratios (CD8+/CD4+)” value [2, 6]?
Answer: 1.48 and 2.23 and 2.88

Question: What about the “Fold Increase (Avg)” value ([2]; 0.5 mM 2-DG, Day 10 vs Day 0) of the same molecule?
Answer: 3.6

Question: And the “Fold Increase in CD8+ to CD4+ ratio” value ([2]; 0.5 mM 2-DG, Day 10 vs Day 0, single donors)?
Answer: 3.29 and 2.85 and 3.7

Question: What about the “% CD4+” value ([2]; 1 mM 2-DG, Day 10, Table 26) of the same molecule?
Answer: 50%

Question: What about the “% CD8+” value ([2]; 1 mM 2-DG, Day 10, Table 26) of the same molecule?
Answer: 42%

Question: And the “% Ratios (CD8+/CD4+)” value ([2]; 1 mM 2-DG, Day 10, Table 26)?
Answer: 0.85

Question: What about the “Fold Increase compared to Baseline” value ([2]; 1 mM 2-DG, Day 10 vs Day 0, Table 26) of the same molecule?
Answer: 2.18

Question: What about the “% CD4+” value ([2]; 2 mM 2-DG, Day 10, Table 26) of the same molecule?
Answer: 42%

Question: What about the “% CD8+” value ([2]; 2 mM 2-DG, Day 10, Table 26) of the same molecule?
Answer: 50%

Question: And the “% Ratios (CD8+/CD4+)” value ([2]; 2 mM 2-DG, Day 10, Table 26)?
Answer: 1.18

Question: What about the “Fold Increase compared to Baseline” value ([2]; 2 mM 2-DG, Day 10 vs Day 0, Table 26) of the same molecule?
Answer: 3.01

Question: What about the “Fold Increase in CD8+ to CD4+ ratio” value ([2]; 4 mM 2-DG, 10 days) of the same molecule?
Answer: 4.1 fold

Question: What about the “% CD4+” value ([2]; 4 mM 2-DG, Day 10, Table 26) of the same molecule?
Answer: 23%

Question: What about the “% CD8+” value ([2]; 4 mM 2-DG, Day 10, Table 26) of the same molecule?
Answer: 63%

Question: What about the “% Ratios (CD8+/CD4+)” value ([2]; 4 mM 2-DG, Day 10, Table 26) of the same molecule?
Answer: 2.80

Question: And the “Fold Increase compared to Baseline” value ([2]; 4 mM 2-DG, Day 10 vs Day 0, Table 26)?
Answer: 7.15

Question: And the “CD8+ T cell population (frequency)” value ([2]; 4 mM 2-DG)?
Answer: 63%

Question: What about the “fold increase in CD8:CD4 ratio compared to day 0” value ([3]; 2-DG with CLC1) of the same molecule?
Answer: 1.6 fold

Question: What about the “fold increase in CD8:CD4 ratio compared to day 0” value ([3]; 2-DG with CLC2) of the same molecule?
Answer: 1.4 fold
